Measured values published in PubChem BioAssay AID248 (DTP/NCI, 2004).
Toxic doses and inconclusive results are not listed.

System: L1210 leukemia ip in BDF1 mice, survival T/C
Test: NCI In Vivo Anticancer Drug Screen. Data for tumor model L1210 Leukemia (intraperitoneal) in B6D2F1 (BDF1) mice
Details: endpoint: mean survival time, higher = longer survival
Method in brief: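 Read-out is survival time, reported as the treated-group measurement over the vehicle-control measurement.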

[1] = dose: 100.0 mg/kg/injection, schedule: Q01DX009 (ip), vehicle: saline
[2] = dose: 200.0 mg/kg/injection, schedule: Q01DX009 (ip), vehicle: saline
[3] = dose: 400.0 mg/kg/injection, schedule: Q01DX009 (ip), vehicle: saline
[4] = dose: 100.0 mg/kg/injection, schedule: Q04DX003 (ip), vehicle: saline
[5] = dose: 200.0 mg/kg/injection, schedule: Q04DX003 (ip), vehicle: saline
[6] = dose: 400.0 mg/kg/injection, schedule: Q04DX003 (ip), vehicle: saline

**Q.** With `CCCCCCC[n+]1cccc(C#N)c1` as the compound, how does the T/C (dose: 37.5 mg/kg/injection, schedule: Q04DX003 (ip), vehicle: saline) read?
**A.** Its T/C is 96 % of control.

**Q.** And the T/C (dose: 75.0 mg/kg/injection, schedule: Q01DX001 (ip), vehicle: saline)?
**A.** Its T/C is 96 % of control.

**Q.** And the T/C (dose: 75.0 mg/kg/injection, schedule: Q04DX003 (ip), vehicle: saline)?
**A.** The T/C was 98 % of control.

**Q.** What about the T/C (dose: 150.0 mg/kg/injection, schedule: Q01DX001 (ip), vehicle: saline) of the same compound?
**A.** Its T/C is 100 % of control.

**Q.** What about the T/C (dose: 150.0 mg/kg/injection, schedule: Q04DX003 (ip), vehicle: saline) of the same compound?
**A.** Its T/C is 95 % of control.

**Q.** With `CCOC(=O)C(C)P(=O)(OCC)OCC` (stereo unspecified) as the compound, how does the T/C [1] read?
**A.** The T/C was 112 % of control.

**Q.** What about the T/C [2] of the same compound?
**A.** Its T/C is 104 % of control.

**Q.** What about the T/C [3] of the same compound?
**A.** The T/C was 109 % of control.

**Q.** `COc1ccc(OP(=O)(N2CC2)N2CC2)cc1` was tested. Which T/C (dose: 75.0 mg/kg/injection, schedule: Q01DX Z (ip), vehicle: carboxymethylcellulose (CMC)) did it give?
**A.** Its T/C is 120 % of control.

**Q.** And the T/C (dose: 300.0 mg/kg/injection, schedule: Q01DX Z (ip), vehicle: carboxymethylcellulose (CMC))?
**A.** Its T/C is 160 % of control.

**Q.** Which results are given for `OCC1OC(n2cc(I)c3cncnc32)C(O)C1O` (stereo unspecified)?
**A.** T/C (dose: 12.5 mg/kg/injection, schedule: Q01DX005 (ip), vehicle: saline): 102 % of control; T/C (dose: 25.0 mg/kg/injection, schedule: Q01DX005 (ip), vehicle: saline): 106 % of control; T/C (dose: 50.0 mg/kg/injection, schedule: Q01DX005 (ip), vehicle: saline): 106 % of control

**Q.** What does the source list for `CCCCCCCCOC(=O)Nc1ccc(S(=O)(=O)N(C)C)cc1`?
**A.** T/C (dose: 100.0 mg/kg/injection, schedule: Q01DX001 (ip), vehicle: carboxymethylcellulose (CMC)): 98 % of control; T/C (dose: 200.0 mg/kg/injection, schedule: Q01DX001 (ip), vehicle: carboxymethylcellulose (CMC)): 97 % of control; T/C (dose: 400.0 mg/kg/injection, schedule: Q01DX001 (ip), vehicle: carboxymethylcellulose (CMC)): 89 % of control

**Q.** What does the source list for `CCOC(=O)C(C)(C(=O)OCC)c1ccccc1`?
**A.** T/C (dose: 100.0 mg/kg/injection, schedule: Q01DX009 (ip), vehicle: saline with Tween-80): 97 % of control; T/C [4]: 97 % of control; T/C (dose: 200.0 mg/kg/injection, schedule: Q01DX009 (ip), vehicle: saline with Tween-80): 95 % of control; T/C [5]: 97 % of control; T/C (dose: 400.0 mg/kg/injection, schedule: Q01DX009 (ip), vehicle: saline with Tween-80): 95 % of control; T/C [6]: 98 % of control

**Q.** Which results are given for `CONC(=O)Nc1cccc2ccccc12`?
**A.** T/C (dose: 75.0 mg/kg/injection, schedule: Q01DX001 (ip), vehicle: other): 100 % of control; T/C (dose: 75.0 mg/kg/injection, schedule: Q04DX003 (ip), vehicle: other): 97 % of control; T/C (dose: 150.0 mg/kg/injection, schedule: Q01DX001 (ip), vehicle: other): 110 % of control; T/C (dose: 150.0 mg/kg/injection, schedule: Q04DX003 (ip), vehicle: other): 96 % of control; T/C (dose: 300.0 mg/kg/injection, schedule: Q01DX001 (ip), vehicle: other): 106 % of control; T/C (dose: 300.0 mg/kg/injection, schedule: Q04DX003 (ip), vehicle: other): 100 % of control

**Q.** Which results are given for `CC(=O)OC1CCCC2C(=O)c3c(c(O)c4ccccc4c3O)C(=O)C12` (stereo unspecified)?
**A.** T/C [1]: 98 % of control; T/C [4]: 96 % of control; T/C [2]: 98 % of control; T/C [5]: 96 % of control; T/C [3]: 101 % of control; T/C [6]: 93 % of control

**Q.** How did the T/C (dose: 25.0 mg/kg/injection, schedule: Q04DX002 (ip), vehicle: saline) turn out when `CC1(C(=O)O)COC(=O)N1` (stereo unspecified) was run?
**A.** The T/C was 96 % of control.

**Q.** What about the T/C (dose: 50.0 mg/kg/injection, schedule: Q04DX002 (ip), vehicle: saline) of the same compound?
**A.** The T/C was 104 % of control.

**Q.** And the T/C (dose: 100.0 mg/kg/injection, schedule: Q04DX002 (ip), vehicle: saline)?
**A.** Its T/C is 86 % of control.

**Q.** How did the T/C (dose: 100.0 mg/kg/injection, schedule: Q01DX009 (ip), vehicle: Klucel (hydroxypropylcellulose) (HPC)) turn out when `Cc1cccc(Cl)c1NC(=O)c1ccc(C(=O)Nc2c(C)cccc2Cl)cc1` was run?
**A.** The T/C was 87 % of control.

**Q.** And the T/C (dose: 200.0 mg/kg/injection, schedule: Q01DX009 (ip), vehicle: Klucel (hydroxypropylcellulose) (HPC))?
**A.** Its T/C is 94 % of control.

**Q.** What about the T/C (dose: 400.0 mg/kg/injection, schedule: Q01DX009 (ip), vehicle: Klucel (hydroxypropylcellulose) (HPC)) of the same compound?
**A.** The T/C was 94 % of control.

**Q.** For `O=C(COc1ccc(Cl)cc1)OCCBr`, which T/C (dose: 100.0 mg/kg/injection, schedule: Q04DX002 (ip), vehicle: Klucel (hydroxypropylcellulose) (HPC)) is on record?
**A.** Its T/C is 121 % of control.

**Q.** What about the T/C (dose: 200.0 mg/kg/injection, schedule: Q04DX002 (ip), vehicle: Klucel (hydroxypropylcellulose) (HPC)) of the same compound?
**A.** The T/C was 105 % of control.

**Q.** And the T/C (dose: 400.0 mg/kg/injection, schedule: Q04DX002 (ip), vehicle: Klucel (hydroxypropylcellulose) (HPC))?
**A.** Its T/C is 102 % of control.

**Q.** With `C=CP(c1ccccc1)c1ccccc1` as the compound, how does the T/C (dose: 100.0 mg/kg/injection, schedule: Q01DX009 (ip), vehicle: saline sonified) read?
**A.** Its T/C is 103 % of control.

**Q.** And the T/C (dose: 200.0 mg/kg/injection, schedule: Q01DX009 (ip), vehicle: saline sonified)?
**A.** The T/C was 110 % of control.

**Q.** With `O=C1CCSCCN1` as the compound, how does the T/C [1] read?
**A.** The T/C was 98 % of control.

**Q.** What about the T/C [4] of the same compound?
**A.** The T/C was 97 % of control.

**Q.** And the T/C [2]?
**A.** The T/C was 103 % of control.

**Q.** And the T/C [5]?
**A.** Its T/C is 97 % of control.

**Q.** What about the T/C [3] of the same compound?
**A.** The T/C was 101 % of control.

**Q.** What about the T/C [6] of the same compound?
**A.** Its T/C is 95 % of control.
